Results on three compounds are retold here after patent publication US12102633B2, “Spirolactone compounds” (Quixgen, Inc., priority 2017, dated 2024).

Entries after “also recorded” stand apart in the source; their conditions may differ.

The test system of assay [1] is Human sebocytes. Description: Lipogenesis of human sebocytes. The note with it: 96 hours, nile red, read-out: LG-Sebo IC50. In kind it is cell-based. The protocol:
Human sebocytes (Celprogen) were grown in collagen-coated 96-well culture microplate (White/Clear bottom, Coming BioCoat) with growth media till 100% confluency. Culture media was changed to growth media plus 100 μM arachidonic acid (Sigma) and 10 μM rosiglitazone (Tocris) with compounds prepared in DMSO (1:1000 dilution in growth media). Cells were treated with compounds for 96 hours with media containing compounds changed after 48 hours. Upon completion of treatment, cells were washed with 200 μL Phosphate Buffered Saline (PBS) and then fixed by adding 100 μL 4% formaldehyde (Sigma) and incubated at room temperature for 1 hour. Cells were then washed 3 times with PBS. Microplate was stained with 100 μL nile red solution prepared in PBS (2 mg/mL, 1:400 dilution) by incubating at 37° C. for 1 hour and then washed 3 times with PBS. The fluorescence was read at Ex 492 nm and Em 595 nm (TECAN SpectrofluorPlus). Effect of compounds on lipogenesis in sebocytes was calculated by % of DMSO vehicle control.

Assay [2] deals with T1, Mouse ACC (ACC protein purified from liver).
T1 construct: ACC protein was purified by taking advantage of the biotinylation in the carboxylase domain
Description: Mouse ACC enzymatic activity assay. Type of assay: biochemical. Particulars: read-out: EA-CoA mACC IC50. How it is done:
ACC protein was purified by taking advantage of the biotinylation in the carboxylase domain. Male C57BL/6J mice (Jackson Laboratory) at 8-12 weeks of age were euthanized by using CO2 inhalation method and liver was immediately frozen on dry ice. To 100 mg liver was added 1 mL ice-cold tissue lysis buffer (20 mM Tris-HCl pH 7.5, 150 mM NaCl, 1 mM Na2EDTA, 1 mM EGTA, 1% Triton, 2.5 mM sodium pyrophosphate, 1 mM 3-glycerophosphate, 1 mM Na3VO4, 1 μg/mL leupeptin, 1 tablet of protease inhibitor cocktail (Roche) per 10 mL lysis buffer) followed by homogenization on ice with Power Gen 125 homogenizer (Fisher Scientific). After 30 min incubation on ice, tissue lysate was passed through a 10 mL syringe with 18½ G needle for 10 times to shear DNA. The lysate was then subject to 17.5%-35% saturated ammonium sulfate precipitation by adding 880 mg ammonium sulfate powder (Sigma) to 10 mL liver lysate in 10 min with stirring on ice. Sample was centrifuged at 14,000 rpm (Eppendorf) at 4° C. for 10 min and supernatant was saved for further precipitation by adding 880 mg ammonium sulfate powder to 10 ml supernatant in 10 min with stirring on ice. Sample was centrifuged at 14,000 rpm at 4° C. for 10 min. Supernatant was discarded and pellet was dissolved in 10 mL sample buffer (100 mM Tris-HCl, pH 7.5, 1 mM EDTA, 0.1 mM DTT, 0.5 M NaCl, and 5% glycerol). The sample was then added with 1 mL of Strep Mag beads slurry (Genscript) and rotated at 4° C. for 1 hour. Supernatant was discarded and beads were washed with sample buffer for 3 times. Protein was then eluted by adding 10 mL of 2 mM biotin (Promega) prepared in sample buffer. The eluate was then dialyzed at 4° C. for 1 hour by using Slide-A-Lyzer™ Dialysis Cassettes 10K MWCO (Thermo Fisher Scientific) against 3 changes of 200 mL dialysis buffer (50 mM HEPES, pH 7.5, 0.1 mM DTT, 1.0 mM EDTA, and 10% glycerol). Total protein concentration was then quantitated by using BCA protein assay kit (Pierce).
For ACC enzymatic activity assay, 1 μL serial diluted compounds prepared in DMSO in duplicate were mixed with 8 μL dialyzed sample at 37° C. for 10 min. Ninety one L of reaction buffer (50 mM HEPES pH 7.5, 10 mM MgCl2, 2.0 mM DTT, 0.5 mM acetyl-CoA, 4.0 mM ATP, 15 mM ^13C-NaHCO3, 0.75 mg/mL BSA, 0.5 mM sodium citrate) was added to the tube and mixed thoroughly. After incubation at 37° C. for 1 hour, 300 μl ice-cold quenching buffer (acetonitrile:methanol=1:1, 20 μM carbutamide as internal standard) was added to each tube and mixed well to terminate the reaction. Samples were centrifuged at 14,000 rpm for 10 min (Eppendorf) and supernatant was loaded onto LC-MS/MS for quantitation of malonyl-^13C-CoA (Gao et al., Journal of chromatography B, Analytical technologies in the biomedical and life sciences 853, 303-313 (2007)).
(§1) Shimadzu LC system was used for sample analysis consisting of system controller (Shimadzu CBM-20A), autosampler (Shimadzu SIL-20A), pump A and B (Shimadzu LC-20AD), column oven (Shimadzu CTO-20A), and analytical column (Phenomenex Gemini 5u C18 11A, 100×2 mm). LC was running at 200 μL/min in the binary gradient mode with mobile phase A (5 mM Ammonium Acetate and 5 mM DMBA in water (1,3-Dimethylbutylamine)) and B (methanol). The samples were analyzed on an AB Sciex QTrap4000 LC-MS/MS triple quadrupole mass spectrometer (Applied Biosystems). Malonyl-CoA and malonyl-13C-CoA were monitored in positive ion mode following MRM transitions at 854.2/347.1 and 855.1/246.1, respectively. The product and internal standard were coeluted to the mass spectrometer in 3 s with 50% H2O, 25% MeCN, 25% acetone, and 5 mM ammonium acetate. Ion chromatograms were integrated using the Analyst 1.5.2 software. Peak area ratios were compared against a standard curve and final cellular concentration of malonyl-CoA or production rate of malonyl-13C-CoA was calculated as pmoles/mg protein per minute.

The subject of assay [3] is Human sebocytes. Put plainly: Cellular levels of malonyl-CoA in human sebocytes. Type of assay: cell-based. The note with it: 0.5 h, 30 min incubation, read-out: Malonyl-CoA in Sebo IC50. How it is done:
as §1
Human sebocytes (Celprogen) were grown in growth media (DMEM with 4.5 g/L glucose, 0.584 g/L L-glutamine (Sigma), 100 units/mL of penicillin and 100 μg/mL of streptomycin (Gibco), 10% fetal bovine serum (Gibco)) at 37° C. in a humidified water jacketed incubator (Forma Scientific) supplemented with 5% CO2 till 100% confluency. Cells grown in 152 cm^2 cell culture dish (Corning) were trypsinized with 0.25% trypsin-EDTA (Gibco), centrifuged at 800 rpm for 10 min (Eppendorf) and resuspended in 4 mL growth media. To 1 μL serial diluted compounds in DMSO, 99 μL cells (around 0.5 million cells suspended in growth media) were added and mixed well followed by incubation in cell culture incubator for 30 min. Cells were then centrifuged at 800 rpm for 10 min and 70 μL 10% trichloroacetic acid was added to each well to lyse the cells and precipitate proteins. Cellular levels of malonyl-CoA were quantitated by LC-MS/MS.

The test system of assay [4] is Human sebocytes. Put plainly: Proliferation of human sebocytes. In kind it is cell-based. Particulars: 24 hours, MTT, read-out: AP-Sebo IC50. How it is done:
Human sebocytes (Celprogen) and keratinocytes (ATCC) were grown in 96-well culture microplate (Coming) with growth media to around 50% confluency. Media was changed to growth media mixed with serially diluted compounds in DMSO (1:1000 dilution). After treatment for 24 hours, media was changed to 100 μL phenol red free DMEM and cell numbers were quantitated by using Vybrant® MTT Cell Proliferation Assay Kit (Molecular Probes). Ten μL of 12 mM MTT stock solution was added to each well and the microplate was incubated at 37° C. for 4 hours. Then 100 μL of the SDS-HCl solution was added to each well and mixed thoroughly using a pipette. The microplate was incubated at 37° C. for 4 hours in a cell culture incubator. The microplate was mixed again using a pipette and absorbance was read at 570 nm (Dynex MRX^e Magellan Biosciences). Effect of compounds on proliferation of human keratinocytes was calculated by % of DMSO vehicle control.

Assay [5] concerns 3T3-L1 adipocytes. Description: Lipogenesis of 3T3-L1 adipocytes. Type of assay: cell-based. The note with it: Mus musculus, TG readout, read-out: LG-3T3 IC50. How it is done: 3T3-L1 fibroblast cells (Zen-Bio) were grown in 96-well culture microplate (Corning) with growth media to around 90-100% confluency. Culture media was changed to differentiation media (growth media supplemented with 3-Isobutyl-1-Methylxanthine 500 μM, Dexamethasone 1 μM, insulin 10 μg/mL, and rosiglitazone 2 μM) plus serially diluted compounds prepared in DMSO (1:1000 dilution). After incubation for 2 days, media was changed to maintenance media (growth media supplemented with insulin 10 μg/mL) plus serially diluted compounds prepared in DMSO (1:1000 dilution) for around 1 week with media changed every 2 days. Upon completion of the treatment, culture media are discarded and 200 μL 0.01% SDS was added to each well and shaken for 1 hour to lyse the cells. Cell lysates were then transferred to 400 μL Folch's solution (chloroform: methanol=2:1) and mixed well. After centrifuge at 2,000 rpm for 20 min, 200 μL of the lower organic phase was transferred to a plate with 10 μL sample buffer (chloroform:Triton-100=3:1). Samples were blown dried under nitrogen and 200 μL triglyceride (TG) quantification reagent (Thermo Fisher Scientific) was added, mixed, and incubated at 37° C. for 30 min. TG concentration was determined by reading absorbance at 535 nm (Dynex MRX^e Magellan Biosciences) and calculated from standard curve.

Assay [6] concerns the target T2, human ACC2 (Homo sapiens, UniProt O00763).
T2 construct: purchased BPS Bioscience
Put plainly: Human ACC enzymatic activity assay (ACC2). In kind it is biochemical. The note with it: purified human ACC2; read-out: EA-CoA hACC 2 IC50. The protocol: (§2) Human ACC enzymatic activity assays were performed by using purified human ACC1 and ACC2 proteins (BPS Bioscience). ACC1 and ACC2 proteins were diluted in 24.5 μL reaction buffer (50 mM HEPES pH 7.5, 10 mM MgCl2, 2.0 mM DTT, 4.0 mM ATP, 15 mM ^13C-NaHCO3, 0.75 mg/mL BSA, 0.5 mM sodium citrate), and final concentrations of ACC1 and ACC2 were 0.4 μg/mL and 0.48 μg/mL. For each reaction, 0.5 μL of serial diluted compounds were prepared in DMSO in duplicate or triplicate and mixed with the above 24.5 μL reaction mixtures with ACC proteins at 37° C. for 10 min. Meanwhile, 25 μL of reaction buffer plus acetyl-CoA (final concentration: 5 μM) was prepared freshly and added to the above 25 μL mixture to initiate the reaction. After incubation at 37° C. for 1-2 hours, 100 μl ice-cold 10% TCA with malonyl-^13C3-CoA (final concentration: 40 nM, Sigma-Aldrich) was added to terminate the reaction. For LC-MS/MS analysis, 300 μL quenching buffer (acetonitrile:methanol=1:1, 20 μM carbutamide as internal standard) was added to each tube and mixed well. Samples were then centrifuged at 14,000 rpm for 10 min (Eppendorf) and supernatants were loaded onto LC-MS/MS for quantitation of […] (Gao et al., Journal of chromatography B, Analytical technologies in the biomedical and life sciences 853, 303-313 (2007)).
as §1

For assay [7], the system named is liver triglycerides (TG) in C57BL/6J mice. Put plainly: Chronic treatment for reducing liver triglycerides in C57BL/6J mice. In kind it is in vivo, mouse. The note with it: male C57BL/6J mice; 20 mg per kilogram body weight in 0.5% methylcellulose, oral gavage once per day for 2 weeks; FIG. 1, vs vehicle. The protocol:
Male C57BL/6J mice (Jackson Laboratory) at around 9 weeks of age were treated with vehicle (0.5% methylcellulose or PEG400) or Example 14 (30 mg per kilogram body weight, dosing solution prepared in PEG400) and Example 20 (20 mg per kilogram body weight, dosing solution prepared in 0.5% methylcellulose) by oral gavage at ˜9:00 am, once per day for 2 weeks. Concentrations of Example 14 and Example 20 were 15 mg/ml and 2 mg/ml, respectively. The dosing volumes of Example 14 and Example 20 were 2 ml per kilogram body weight and 10 ml per kilogram body weight, respectively. After 14-day treatment, animals were euthanized in CO2 at 2 hours post dose and liver was frozen and kept on dry ice. Liver TG was measured by extracting lipids with chloroform:methanol 2:1 (v/v) followed by quantitation with Infinity™ Triglycerides Reagent (Thermo Scientific).

For assay [8], the target named is T3, human ACC1 (Homo sapiens, UniProt Q13085).
T3 construct: purchased BPS Bioscience
Put plainly: Human ACC enzymatic activity assay (ACC1). In kind it is biochemical. The note with it: purified human ACC1; read-out: EA-CoA hACC 1 IC50. The protocol:
as §2, §1

The conditions of assay [9]: in vivo; cited from earlier work.
The conditions of assay [10]: in vivo; cited from earlier work. The source holds these as a separate data set.

T2 sequence (O00763 whole entry): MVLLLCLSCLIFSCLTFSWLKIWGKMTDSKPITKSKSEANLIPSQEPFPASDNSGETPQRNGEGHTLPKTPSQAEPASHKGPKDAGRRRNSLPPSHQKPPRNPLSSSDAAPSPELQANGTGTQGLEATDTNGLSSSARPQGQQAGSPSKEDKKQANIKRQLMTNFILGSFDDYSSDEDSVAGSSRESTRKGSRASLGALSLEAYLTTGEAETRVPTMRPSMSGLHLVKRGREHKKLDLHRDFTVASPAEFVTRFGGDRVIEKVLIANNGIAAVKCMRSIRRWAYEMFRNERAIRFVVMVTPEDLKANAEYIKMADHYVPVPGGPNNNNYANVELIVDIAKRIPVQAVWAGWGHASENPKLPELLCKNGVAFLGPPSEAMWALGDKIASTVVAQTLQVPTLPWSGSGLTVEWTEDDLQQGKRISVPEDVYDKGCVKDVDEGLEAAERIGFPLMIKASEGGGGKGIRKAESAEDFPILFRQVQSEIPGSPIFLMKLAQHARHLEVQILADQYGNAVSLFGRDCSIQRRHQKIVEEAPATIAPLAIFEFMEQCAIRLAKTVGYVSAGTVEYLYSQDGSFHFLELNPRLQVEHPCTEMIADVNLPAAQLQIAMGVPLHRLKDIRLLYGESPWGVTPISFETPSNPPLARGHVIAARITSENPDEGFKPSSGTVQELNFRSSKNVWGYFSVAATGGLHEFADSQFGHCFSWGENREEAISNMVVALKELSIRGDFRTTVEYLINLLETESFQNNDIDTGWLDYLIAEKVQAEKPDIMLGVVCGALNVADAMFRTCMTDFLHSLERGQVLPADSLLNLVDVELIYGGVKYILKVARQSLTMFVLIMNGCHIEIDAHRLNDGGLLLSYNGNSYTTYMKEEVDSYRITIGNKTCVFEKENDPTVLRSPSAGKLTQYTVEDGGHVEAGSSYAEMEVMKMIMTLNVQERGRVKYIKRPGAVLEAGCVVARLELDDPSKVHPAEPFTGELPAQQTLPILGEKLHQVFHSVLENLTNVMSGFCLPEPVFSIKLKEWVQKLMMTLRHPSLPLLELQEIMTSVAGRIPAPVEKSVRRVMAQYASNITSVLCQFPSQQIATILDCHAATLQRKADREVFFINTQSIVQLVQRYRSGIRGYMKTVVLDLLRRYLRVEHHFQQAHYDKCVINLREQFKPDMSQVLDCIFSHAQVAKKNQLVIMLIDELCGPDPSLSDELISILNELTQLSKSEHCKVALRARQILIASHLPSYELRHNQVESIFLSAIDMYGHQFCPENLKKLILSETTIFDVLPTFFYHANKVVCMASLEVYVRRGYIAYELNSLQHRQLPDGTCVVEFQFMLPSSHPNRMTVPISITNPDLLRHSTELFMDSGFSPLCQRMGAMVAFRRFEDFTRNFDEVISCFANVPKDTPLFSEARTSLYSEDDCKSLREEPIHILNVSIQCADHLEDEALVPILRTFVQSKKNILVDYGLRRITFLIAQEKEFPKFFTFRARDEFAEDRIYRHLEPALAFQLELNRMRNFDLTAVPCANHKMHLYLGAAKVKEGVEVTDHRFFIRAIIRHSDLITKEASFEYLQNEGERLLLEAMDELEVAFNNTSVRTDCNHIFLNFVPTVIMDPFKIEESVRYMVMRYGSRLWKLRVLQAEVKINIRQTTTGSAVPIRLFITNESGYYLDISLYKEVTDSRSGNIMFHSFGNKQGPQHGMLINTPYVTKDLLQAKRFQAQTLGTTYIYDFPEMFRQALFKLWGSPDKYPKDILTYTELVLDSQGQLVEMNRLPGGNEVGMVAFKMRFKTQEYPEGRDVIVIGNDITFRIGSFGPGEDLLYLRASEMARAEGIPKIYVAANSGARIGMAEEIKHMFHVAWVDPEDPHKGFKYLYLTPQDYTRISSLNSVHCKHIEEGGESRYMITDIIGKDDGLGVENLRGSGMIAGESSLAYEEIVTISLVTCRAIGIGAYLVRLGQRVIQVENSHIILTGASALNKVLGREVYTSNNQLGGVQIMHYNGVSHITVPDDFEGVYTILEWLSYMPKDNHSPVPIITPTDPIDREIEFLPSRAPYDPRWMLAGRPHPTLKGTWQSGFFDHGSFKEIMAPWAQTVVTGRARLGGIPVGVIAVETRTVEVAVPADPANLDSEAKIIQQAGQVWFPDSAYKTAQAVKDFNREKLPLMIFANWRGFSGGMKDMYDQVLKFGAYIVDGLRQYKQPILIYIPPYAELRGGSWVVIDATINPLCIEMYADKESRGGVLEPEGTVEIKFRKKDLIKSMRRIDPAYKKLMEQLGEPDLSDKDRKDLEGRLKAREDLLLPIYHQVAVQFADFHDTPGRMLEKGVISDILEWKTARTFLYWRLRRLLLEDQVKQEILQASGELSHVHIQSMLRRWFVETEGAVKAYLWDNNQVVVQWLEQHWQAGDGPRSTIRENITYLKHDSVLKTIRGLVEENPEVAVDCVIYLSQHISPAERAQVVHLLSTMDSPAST

For orientation: IC50 means the concentration that gives 50% inhibition. For the compound `COc1cc(C(=O)N2CCC3(CC2)Cc2ccc(C(C)C)cc2C(=O)O3)cc2c(OC)cccc12` [Example 1, 1′-(4,8-dimethoxy-2-naphthoyl)-7-isopropylspiro[isochroman-3,4′-piperidin]-1-one], the concentration for half-maximal inhibition (IC50) was 10 nM in [1]; 3.7 nM in assay [2]; 41.5 nM in assay [3]; 93.3 nM in [4]; 1.3 nM in assay [5].
As to `COc1cc(C(=O)N2CCC3(CC2)Cc2ccc(-c4cncc(C(=O)O)c4)cc2C(=O)O3)nc2c(C3CC3)cccc12` [Example 20, 5-(1′-(8-cyclopropyl-4-methoxyquinoline-2-carbonyl)-1-oxospiro[isochroman-3,4′-piperidin]-7-yl)nicotinic acid], the IC50 in [6] came to 152 nM; in assay [8] it was 148 nM. Also, the “Liver TG” value in [7] is listed as “reduced liver triglycerides; also recorded: reduced liver TG”.
Turning to `CCCCCCCCCCCCCCOc1ccc(C(=O)OCC(=O)N(C)CC(=O)OCC)o1` [olumacostat glasaretil], the “Phase II data” value in [9] is on record as “positive”. In addition, the “Primary endpoints in phase III study” value in assay [10] was “did not meet its primary endpoints”.
